Reference: patent US10314308B2, “Microbiocidal benzoxaboroles” (SYNGENTA PARTICIPATIONS AG, priority 2015, dated 2019)

Assays:
[1] = system: Botryotinia Fuckeliana(Botrytis Cinerea); assay: Botryotinia fuckeliana (Botrytis cinerea) / liquid culture (gray mould); assay type: cell-based; settings: Vogels broth, 24° C., 3-4 days after application, read-out: disease control (inhibition of growth, photometrically)
Experimental: 9 Botryotinia Fuckeliana(Botrytis Cinerea)/Liquid Culture (Gray Mould) Conidia of the fungus from cryogenic storage were directly mixed into nutrient broth (Vogels broth). After placing a DMSO solution of test compound into a 96-well microtiter plate, the nutrient broth containing the fungal spores was added. The test plates were incubated at 24° C. and the inhibition of growth was determined photometrically 3-4 days after application.

[2] = system: Monographella Nivalis(Microdochium Nivale); assay: Monographella nivalis (Microdochium nivale) / liquid culture (foot rot cereals); assay type: cell-based; settings: PDB potato dextrose broth, 24° C., 4-5 days after application, read-out: disease control (inhibition of growth, photometrically)
Method in brief: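 Conidia from cryogenic storage mixed into potato dextrose broth, added to compound pre-dispensed from DMSO solution. Incubated at 24° C.; growth inhibition read photometrically 4-5 days after application.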

[3] = system: Mycosphaerella Arachidis(Cercospora Arachidicola); assay: Mycosphaerella arachidis (Cercospora arachidicola) / liquid culture (early leaf spot); assay type: cell-based; settings: PDB potato dextrose broth, 24° C., 4-5 days after application, read-out: disease control (inhibition of growth, photometrically)
Method in brief: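 Cryo-stored conidia in potato dextrose broth were added to compound in DMSO in microtiter plates. After incubation at 24 °C, growth inhibition was measured photometrically 4-5 days after application.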

Gaeumannomyces Graminis = assay: Gaeumannomyces graminis / liquid culture (take-all of cereals); assay type: cell-based; settings: PDB potato dextrose broth, 24° C., 4-5 days after application, read-out: disease control (inhibition of growth, photometrically)
Method in brief: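 Mycelial fragments from cryogenic storage mixed into potato dextrose broth and added to test compound in DMSO. Incubated at 24° C; growth inhibition read photometrically 4-5 days after application.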

Plasmopara Viticola = assay: whole plant or invertebrate; assay type: in vivo; settings: foliar, read-out: disease control
[4] = system: Mycosphaerella Graminicola(Septoria Tritici); assay: Mycosphaerella graminicola (Septoria tritici) / liquid culture (Septoria blotch); assay type: cell-based; settings: Zymoseptoria tritici, PDB potato dextrose broth, 24° C., 4-5 days after application, read-out: disease control (inhibition of growth, photometrically)
Method in brief: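 Cryostored conidia mixed into potato dextrose broth and added to compound dispensed from DMSO solution. Incubation at 24 °C; growth inhibition read photometrically 4-5 days after application.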

Fusarium Culmorum = assay: microbe, parasite or virus in culture; assay type: cell-based; settings: read-out: disease control (inhibition of growth, photometrically)
[5] = system: Thanatephorus Cucumeris(Rhizoctonia Solani); assay: Thanatephorus cucumeris (Rhizoctonia solani) / liquid culture (foot rot, damping-off); assay type: cell-based; settings: PDB potato dextrose broth, 24° C., 3-4 days after application, read-out: disease control (inhibition of growth, photometrically)
Experimental: 16 Thanatephorus Cucumeris(Rhizoctonia Solani)/Liquid Culture (Foot Rot, Damping-Off) Mycelia fragments of a newly grown liquid culture of the fungus were directly mixed into nutrient broth (PDB potato dextrose broth). After placing a DMSO solution of the test compounds into a 96-well microtiter plate at an application rate of 200 ppm, the nutrient broth containing the fungal material was added. The test plates were incubated at 24° C. and the inhibition of growth was determined photometrically 3-4 days after application.

[6] = system: Phaeosphaeria Nodorum (Septoria Nodorum); assay: Phaeosphaeria nodorum (Septoria nodorum) / wheat / leaf disc preventative (glume blotch); assay type: in vivo; settings: Parastagonospora nodorum, foliar, wheat leaf segments cv Kanzler, inoculated 2 days after application, assessed 5-7 days after application, read-out: disease control
Experimental: 5 Phaeosphaeria Nodorum (Septoria Nodorum)/Wheat/Leaf Disc Preventative (Glume Blotch) Wheat leaf segments cv Kanzler were placed on agar in a 24-well plate and sprayed with formulated test compound diluted in water. The leaf disks were inoculated with a spore suspension of the fungus 2 days after application. The inoculated test leaf disks were incubated at 20° C. and 75% relative humidity under a light regime of 12/12 h (light/dark) in a climate cabinet and the activity of a compound was assessed as percent disease control compared to untreated when an appropriate level of disease damage appears in untreated check leaf disks (5-7 days after application).

Sclerotinia Sclerotiorum = assay: Sclerotinia sclerotiorum / liquid culture (cottony rot); assay type: cell-based; settings: PDB potato dextrose broth, 24° C., 3-4 days after application, read-out: disease control (inhibition of growth, visually)
Method in brief: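 Mycelial fragments from fresh liquid culture in potato dextrose broth added to test compounds in DMSO. Incubated at 24° C; growth inhibition scored visually 3-4 days after application.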

[7] = system: Puccinia Recondita f. sp. Tritici; assay: Puccinia recondita f. sp. tritici / wheat / leaf disc preventative (brown rust); assay type: in vivo; settings: foliar, wheat leaf segments cv Kanzler, inoculated 1 day after application, assessed 7-9 days after application, read-out: disease control
Experimental: 3 Puccinia Recondita f. sp. Tritici/Wheat/Leaf Disc Preventative (Brown Rust) Wheat leaf segments cultivated variety (cv) Kanzler were placed on agar in 24-well plates and sprayed with formulated test compound diluted in water. The leaf disks were inoculated with a spore suspension of the fungus 1 day after application. The inoculated leaf segments were incubated at 19° C. and 75% relative humidity under a light regime of 12/12 h (light/dark) in a climate cabinet and the activity of a compound was assessed as percent disease control compared to untreated when an appropriate level of disease damage appears in untreated check leaf segments (7-9 days after application).

Pythium Ultimum = assay: Pythium ultimum / liquid culture (seedling damping off); assay type: cell-based; settings: Globisporangium ultimum, potato dextrose broth, 24° C., 2-3 days after application, read-out: disease control (inhibition of growth, photometrically)
[8] = system: Glomerella Lagenarium(Colletotrichum Ladenarium); assay: Glomerella lagenarium (Colletotrichum lagenarium) / liquid culture (anthracnose); assay type: cell-based; settings: PDB potato dextrose broth, 24° C., 3-4 days after application, read-out: disease control (inhibition of growth, photometrically)
Method in brief: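 Cryostored conidia were suspended in potato dextrose broth and added to compound in DMSO. Cultures were incubated at 24 °C. Growth inhibition was measured photometrically 3–4 days after application.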

Phytophthora Infestans = assay: whole plant or invertebrate; assay type: in vivo; settings: in Solanum lycopersicum, foliar, read-out: disease control

SMILES | inhibition at 20 ppm [1] | inhibition at 20 ppm [2] | inhibition at 20 ppm [3] | inhibition at 20 ppm (Gaeumannomyces Graminis) | pest or weed control at 200 ppm (Plasmopara Viticola) | inhibition at 20 ppm [4] | melting point | inhibition at 20 ppm (Fusarium Culmorum) | inhibition at 20 ppm [5] | pest or weed control at 200 ppm [6] | inhibition at 20 ppm (Sclerotinia Sclerotiorum) | pest or weed control at 200 ppm [7] | inhibition at 20 ppm (Pythium Ultimum) | inhibition at 20 ppm [8] | pest or weed control at 200 ppm (Phytophthora Infestans)
OB1OCc2cc(Cl)c(-c3cccs3)cc21 [Compound 3] | ≥ 80% | ≥ 80% | ≥ 80% | ≥ 80% | ≥ 80% | ≥ 80% | 125 to 135 °C | ≥ 80% | ≥ 80% | ≥ 80% | ≥ 80% | ≥ 80% | ≥ 80% | ≥ 80% | –
Cn1cccc1-c1cc2c(cc1Cl)COB2O [Compound 4] | – | ≥ 80% | ≥ 80% | ≥ 80% | ≥ 80% | ≥ 80% | 195 to 202 °C | ≥ 80% | – | ≥ 80% | – | ≥ 80% | ≥ 80% | ≥ 80% | –
OB1OCc2cc(F)c(-c3ccc(Cl)nc3)cc21 [Compound 13, 2-chloro-5-(5-fluoro-1-hydroxy-3H-2,1-benzoxaborol-6-yl)pyridine] | – | ≥ 80% | – | ≥ 80% | ≥ 80% | – | 213 to 215 °C | – | – | – | – | – | ≥ 80% | – | ≥ 80%
OB1OCc2cc(Cl)c(-c3ncno3)cc21 [Compound 14, 5-(5-chloro-1-hydroxy-3H-2,1-benzoxaborol-6-yl)-1,2,4-oxadiazole] | ≥ 80% | ≥ 80% | ≥ 80% | ≥ 80% | ≥ 80% | ≥ 80% | 175 to 177 °C | ≥ 80% | ≥ 80% | – | ≥ 80% | ≥ 80% | ≥ 80% | ≥ 80% | –
Cc1csc(-c2cc3c(cc2Cl)COB3O)n1 [Compound 15] | – | ≥ 80% | ≥ 80% | ≥ 80% | ≥ 80% | ≥ 80% | – | ≥ 80% | ≥ 80% | – | ≥ 80% | – | ≥ 80% | ≥ 80% | ≥ 80%
Cc1ncsc1-c1cc2c(cc1Cl)COB2O [Compound 16] | ≥ 80% | ≥ 80% | ≥ 80% | ≥ 80% | ≥ 80% | ≥ 80% | – | ≥ 80% | – | – | ≥ 80% | – | ≥ 80% | ≥ 80% | ≥ 80%
CC1N=C(c2cc3c(cc2Cl)COB3O)S/C1=N/O (stereo not drawn) [Compound 17] | ≥ 80% | ≥ 80% | ≥ 80% | ≥ 80% | – | ≥ 80% | – | ≥ 80% | – | – | ≥ 80% | – | ≥ 80% | ≥ 80% | ≥ 80%
O/N=C/c1ccc(-c2cc3c(cc2F)COB3O)o1 [Compound 27] | – | ≥ 80% | ≥ 80% | – | ≥ 80% | – | 200 to 220 °C | – | – | – | – | – | ≥ 80% | ≥ 80% | ≥ 80%
Cc1noc(-c2cc3c(cc2F)COB3O)n1 [Compound 30, 5-(5-fluoro-1-hydroxy-3H-2,1-benzoxaborol-6-yl)-3-methyl-1,2,4-oxadiazole] | ≥ 80% | ≥ 80% | ≥ 80% | ≥ 80% | – | ≥ 80% | 200 to 202 °C | – | – | – | ≥ 80% | – | ≥ 80% | ≥ 80% | ≥ 80%
CC(=O)c1ccc(-c2cc3c(cc2Cl)COB3O)o1 [Compound 39] | – | ≥ 80% | ≥ 80% | ≥ 80% | ≥ 80% | – | – | ≥ 80% | ≥ 80% | – | – | – | ≥ 80% | ≥ 80% | ≥ 80%
N#Cc1cscc1-c1cc2c(cc1Cl)COB2O [Compound 42] | – | ≥ 80% | ≥ 80% | ≥ 80% | ≥ 80% | ≥ 80% | – | ≥ 80% | – | ≥ 80% | ≥ 80% | – | ≥ 80% | ≥ 80% | ≥ 80%
OB1OCc2cc(F)c(-c3ccsc3Cl)cc21 [Compound 79] | – | ≥ 80% | ≥ 80% | ≥ 80% | ≥ 80% | ≥ 80% | – | – | ≥ 80% | ≥ 80% | ≥ 80% | ≥ 80% | ≥ 80% | ≥ 80% | –
OB1OCc2cc(Cl)c(-c3ccsc3Cl)cc21 [Compound 88] | – | ≥ 80% | ≥ 80% | ≥ 80% | ≥ 80% | ≥ 80% | – | ≥ 80% | ≥ 80% | ≥ 80% | ≥ 80% | ≥ 80% | ≥ 80% | ≥ 80% | –
OB1OCc2cc(Cl)c(-c3cncc(C(F)(F)F)c3)cc21 [Compound 91] | ≥ 80% | ≥ 80% | ≥ 80% | ≥ 80% | ≥ 80% | ≥ 80% | – | ≥ 80% | ≥ 80% | ≥ 80% | ≥ 80% | ≥ 80% | ≥ 80% | ≥ 80% | –
COc1c(-c2nnco2)ccc2c1B(O)OC2 [Compound 93] | – | – | ≥ 80% | ≥ 80% | – | – | 176 to 178 °C | – | – | – | – | – | ≥ 80% | ≥ 80% | ≥ 80%
OB1OCc2cc(F)c(-c3nnco3)cc21 [Compound 95] | – | – | ≥ 80% | ≥ 80% | – | – | 237 to 239 °C | – | – | – | ≥ 80% | – | ≥ 80% | ≥ 80% | ≥ 80%
